According to patent US9067914B1, “Tropomyosin-related kinase (TRK) inhibitors” (Genzyme Corporation, priority 2013, dated 2015):
Where two headings read alike, the source gives them in different places.

Tests used:
TrkA = TrkA (Homo sapiens (Human), UniProt P04629); assay: TrkA activity, off-chip mobility shift assay (LabChip 3000); format: biochemical; conditions: 55 μM ATP (ATP Km); n/d = none detected
Source text: (§1) Reagents and consumables were purchased from Sigma Aldrich, Carna Biosciences, or Caliper Life Sciences. All assay reaction conditions for IC50 determinations were within the linear range with respect to time and enzyme concentration. […] The LabChip 3000 separates and measures the fluorescent signal of fluorescein labeled peptide substrate and fluorescein labeled peptide product present in each well. Results are expressed as percent conversion by measuring peak height for both the substrate and product and dividing the product peak height by the sum of peak heights for both substrate and product.

TrkB = TrkB (Homo sapiens (Human), UniProt Q16620); assay: TrkB activity, off-chip mobility shift assay (LabChip 3000); format: biochemical
Chain of TrkB (Q16620 32-822): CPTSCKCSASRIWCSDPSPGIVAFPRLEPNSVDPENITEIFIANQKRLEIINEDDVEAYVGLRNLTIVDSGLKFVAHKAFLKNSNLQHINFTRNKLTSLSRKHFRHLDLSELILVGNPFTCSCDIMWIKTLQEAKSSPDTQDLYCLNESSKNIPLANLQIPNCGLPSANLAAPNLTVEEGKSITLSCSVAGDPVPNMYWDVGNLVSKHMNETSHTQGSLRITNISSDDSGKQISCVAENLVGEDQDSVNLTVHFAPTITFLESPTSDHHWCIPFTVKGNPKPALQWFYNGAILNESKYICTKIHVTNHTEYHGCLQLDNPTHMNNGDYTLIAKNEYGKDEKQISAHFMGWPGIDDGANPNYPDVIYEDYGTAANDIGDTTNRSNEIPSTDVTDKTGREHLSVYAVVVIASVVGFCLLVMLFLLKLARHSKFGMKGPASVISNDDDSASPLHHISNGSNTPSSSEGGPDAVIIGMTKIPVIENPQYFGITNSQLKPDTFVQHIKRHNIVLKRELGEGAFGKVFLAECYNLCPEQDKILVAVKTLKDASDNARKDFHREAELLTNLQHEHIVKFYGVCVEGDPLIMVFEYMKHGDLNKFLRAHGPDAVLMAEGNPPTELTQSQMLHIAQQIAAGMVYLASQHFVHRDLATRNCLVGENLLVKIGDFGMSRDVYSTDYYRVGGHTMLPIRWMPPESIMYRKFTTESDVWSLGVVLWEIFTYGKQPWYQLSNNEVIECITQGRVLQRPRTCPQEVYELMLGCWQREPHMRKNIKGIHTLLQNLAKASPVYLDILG
Source text: as §1

[1] = 70 μM ATP (ATP Km), n/d = none detected

Chain of TrkA (P04629 33-796): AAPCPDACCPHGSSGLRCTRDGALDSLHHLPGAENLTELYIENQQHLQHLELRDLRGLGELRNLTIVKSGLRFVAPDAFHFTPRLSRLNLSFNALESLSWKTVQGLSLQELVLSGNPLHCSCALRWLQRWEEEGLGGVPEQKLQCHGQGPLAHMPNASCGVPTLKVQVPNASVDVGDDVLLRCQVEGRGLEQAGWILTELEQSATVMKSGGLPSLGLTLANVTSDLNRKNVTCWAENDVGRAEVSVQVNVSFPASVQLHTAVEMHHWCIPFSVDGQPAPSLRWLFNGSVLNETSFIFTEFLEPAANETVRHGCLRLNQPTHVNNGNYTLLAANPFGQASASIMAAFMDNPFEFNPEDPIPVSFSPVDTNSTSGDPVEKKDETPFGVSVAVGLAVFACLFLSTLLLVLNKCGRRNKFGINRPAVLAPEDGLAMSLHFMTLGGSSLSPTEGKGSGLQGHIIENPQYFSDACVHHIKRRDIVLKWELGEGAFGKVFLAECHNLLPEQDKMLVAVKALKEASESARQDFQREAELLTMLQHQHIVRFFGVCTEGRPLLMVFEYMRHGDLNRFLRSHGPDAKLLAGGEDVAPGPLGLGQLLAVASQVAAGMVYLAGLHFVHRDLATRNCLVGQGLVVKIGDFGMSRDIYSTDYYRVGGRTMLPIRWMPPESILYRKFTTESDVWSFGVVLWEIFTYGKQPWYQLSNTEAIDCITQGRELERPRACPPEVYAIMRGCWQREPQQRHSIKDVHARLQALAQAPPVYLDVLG

SMILES | IC50 (TrkA) [µM] | IC50 (TrkB; [1]) [µM] | IC50 (TrkB) [µM]
COc1cc([C@H](C)n2c(N)nc3cc(-c4cnn(C)c4)cnc32)ccc1OCc1ccc(C(F)(F)F)cc1 (single isomer, unassigned) [Ex. 3-49-6a, 3-(1-(3-methoxy-4-((4-(trifluoromethyl)benzyl)oxy)phenyl)ethyl)-6-(1-methyl-1H-pyrazol-4-yl)-3H-imidazo[4,5-b]pyridin-2-amine] | 0.0003 | – | –
COc1cc([C@@H](C)n2c(N)nc3cc(-c4cnn(C)c4)cnc32)ccc1OCc1ccc(C(F)(F)F)cc1 (single isomer, unassigned) [Ex. 3-49-6b, 3-(1-(3-methoxy-4-((4-(trifluoromethyl)benzyl)oxy)phenyl)ethyl)-6-(1-methyl-1H-pyrazol-4-yl)-3H-imidazo[4,5-b]pyridin-2-amine] | 0.005 | – | –
COc1ccc(COc2ccc(Cn3c(N)nc4cc(-c5cncnc5)ccc43)cc2OC)cc1 [Ex. 3-2-1, 1-(3-Methoxy-4-((4-methoxybenzyl)oxy)benzyl)-5-(pyrimidin-5-yl)-1H-benzo[d]imidazol-2-amine] | 0.086 | 0.023 | –
COc1ccc(COc2ccc(Cn3c(N)nc4cc(-c5ccncc5)ccc43)cc2OC)cc1 [Ex. 3-2-2, 1-(3-Methoxy-4-((4-methoxybenzyl)oxy)benzyl)-5-(pyridine-4-yl)-1H-benzo[d]imidazol-2-amine] | 0.008 | 0.004 | –
COc1ccc(COc2ccc(Cn3c(N)nc4cc(-c5cnn(CCN6CCOCC6)c5)ccc43)cc2OC)cc1 [Ex. 3-2-3, 1-(3-Methoxy-4-((4-methoxybenzyl)oxy)benzyl)-5-(1-(2-morpholinoethyl)-1H-pyrazol-4-yl)-1H-benzo[d]imidazol-2-amine] | 0.003 | 0.001 | –
COc1ccc(COc2ccc(Cn3cnc4cc(N5CCC(C(C)(C)N)CC5)cnc43)cc2OC)cn1 [Ex. 3-18-1, 2-(1-(3-(3-Methoxy-4-((6-methoxypyridin-3-yl)methoxy)benzyl)-3H-imidazo[4,5-b]pyridin-6-yl)piperidin-4-yl)propan-2-amine] | 0.054 | 0.057 | –
COc1ccc(COc2ccc(Cn3cnc4cc(N5CCOCC5)cnc43)cc2OC)cn1 [Ex. 3-18-2, 4-(3-(3-Methoxy-4-((6-methoxypyridin-3-yl)methoxy)benzyl)-3H-imidazo[4,5-b]pyridin-6-yl)morpholine] | 0.09 | 0.031 | –
COc1ccc(COc2ccc(Cn3cnc4cc(N5CCN(C6CC6)CC5)cnc43)cc2OC)cn1 [Ex. 3-18-3, 6-(4-Cyclopropylpiperazin-1-yl)-3-(3-methoxy-4-((6-methoxypyridin-3-yl)methoxy)benzyl)-3H-imidazo[4,5-b]pyridine] | 0.113 | 0.052 | –
COc1ccc(COc2ccc(Cn3cnc4cc(N5CCN6CCC5CC6)cnc43)cc2OC)cn1 [Ex. 3-18-4, 4-(3-(3-Methoxy-4-((6-methoxypyridin-3-yl)methoxy)benzyl)-3H-imidazo[4,5-b]pyridin-6-yl)-1,4-diazabicyclo[3.2.2]nonane] | 0.47 | 0.349 | –
COc1ccc(COc2ccc(Cn3cnc4cc(N5CC6(CCNCC6)C5)cnc43)cc2OC)cn1 [Ex. 3-18-5, 3-(3-Methoxy-4-((6-methoxypyridin-3-yl)methoxy)benzyl)-6-(2,7-diazaspiro[3.5]nonan-2-yl)-3H-imidazo[4,5-b]pyridine] | 0.025 | 0.021 | –
COc1ccc(COc2ccc(Cn3cnc4cc(N5CCC(N)CC5)cnc43)cc2OC)cn1 [Ex. 3-18-6, 1-(3-(3-Methoxy-4-((6-methoxypyridin-3-yl)methoxy)benzyl)-3H-imidazo[4,5-b]pyridin-6-yl)piperidin-4-amine] | 0.232 | 0.133 | –
COc1ccc(COc2ccc(Cn3cnc4cc(N5CCC[C@H]5C(=O)O)cnc43)cc2OC)cn1 [Ex. 3-18-7, (S)-1-(3-(3-Methoxy-4-((6-methoxypyridin-3-yl)methoxy)benzyl)-3H-imidazo[4,5-b]pyridin-6-yl)pyrrolidine-2-carboxylic acid] | 0.008 | 0.013 | –

More lines, now with the values ahead:

IC50 (TrkA) [µM] | IC50 (TrkB; [1]) [µM] | IC50 (TrkB) [µM] | SMILES
0.032 | 0.026 | – | CCC(Oc1ccc(Cn2c(N)nc3cc(-c4cnn(C)c4)cnc32)cc1OC)c1ccc(OC)nc1 (stereo not shown) [3-34, 3-(3-methoxy-4-(1-(6-methoxypyridin-3-yl)propoxy)benzyl)-6-(1-methyl-1H-pyrazol-4-yl)-3H-imidazo[4,5-b]pyridin-2-amine]
0.001 | 0.0005 | – | COc1ccc(COc2ccc(Cn3c(N)nc4cc(-c5cnn(C)c5)ccc43)cc2OC)cc1 [Ex. 3-1, 1-(3-Methoxy-4-((4-methoxybenzyl)oxy)benzyl)-5-(1-methyl-1H-pyrazol-4-yl)-1H-benzo[d]imidazol-2-amine]
0.007 | 0.006 | – | COc1ccc(COc2ccc(Cn3c(N)nc4cc(-c5ccc(P(C)(C)=O)nc5)ccc43)cc2OC)cc1 [Ex. 3-3, (5-(2-Amino-1-(3-methoxy-4-((4-methoxybenzyl)oxy)benzyl)-1H-benzo[d]imidazol-5-yl)pyridin-2-yl)dimethylphosphine oxide]
0.175 | 0.086 | – | COc1ccc(COc2ccc(Cn3cnc4cc(-n5cc(C6CCCNC6)nn5)ccc43)cc2OC)cn1 (stereo not shown) [Ex. 3-6, 1-(3-Methoxy-4-((6-methoxypyridin-3-yl)methoxy)benzyl)-5-(4-(piperidin-3-yl)-1H-1,2,3-triazol-1-yl)-1H-benzo[d]imidazole]
11.1 | 3.46 | – | COc1ccc(COc2ccc(Cn3cnc4cc(C5CCNCC5)ccc43)cc2OC)cn1 [Ex. 3-8, 1-(3-Methoxy-4-((6-methoxypyridin-3-yl)methoxy)benzyl)-5-(piperidin-4-yl)-1H-benzo[d]imidazole]
0.793 | – | 0.257 | COc1ccc(COc2ccc(Cn3cnc4cc(N5CCOCC5)ccc43)cc2OC)cn1 [Ex. 3-9, 4-(1-(3-Methoxy-4-((6-methoxypyridin-3-yl)methoxy)benzyl)-1H-benzo[d]imidazol-5-yl)morpholine]
0.652 | 0.574 | – | COc1ccc(COc2ccc(Cn3cnc4cc(N5CCC(C(C)(C)N)CC5)ccc43)cc2OC)cn1 [Ex. 3-10, 2-(1-(1-(3-Methoxy-4-((6-methoxypyridin-3-yl)methoxy)benzyl)-1H-benzo[d]imidazol-5-yl)piperidin-4-yl)propan-2-amine]
0.135 | 0.12 | – | COc1ccc(COc2ccc(Cn3cnc4cc(N5CC6(CCNCC6)C5)ccc43)cc2OC)cn1 [Ex. 3-11, 1-(3-methoxy-4-((6-methoxypyridin-3-yl)methoxy)benzyl)-5-(2,7-diazaspiro[3.5]nonan-2-yl)-1H-benzo[d]imidazole]
1.03 | 0.637 | – | COc1ccc(COc2ccc(Cn3cnc4cc(N5CCC(N)CC5)ccc43)cc2OC)cn1 [Ex. 3-12, 1-(1-(3-Methoxy-4-((6-methoxypyridin-3-yl)methoxy)benzyl)-1H-benzo[d]imidazol-5-yl)piperidin-4-amine]
1.13 | 0.443 | – | COc1ccc(COc2ccc(Cn3cnc4cc(N5CCN(C)CC5)ccc43)cc2OC)cn1 [Ex. 3-13, 1-(3-Methoxy-4-((6-methoxypyridin-3-yl)methoxy)benzyl)-5-(4-methylpiperazin-1-yl)-1H-benzo[d]imidazole]
8.98 | 4.37 | – | COc1ccc(COc2ccc(Cn3c(N)nc4cc(N5CCN(C)CC5=O)ccc43)cc2OC)cn1 [Ex. 3-14, 1-(2-Amino-1-(3-methoxy-4-((6-methoxypyridin-3-yl)methoxy)benzyl)-1H-benzo[d]imidazol-5-yl)-4-methylpiperazin-2-one]
0.0005 | 0.0002 | – | COc1ccc(COc2ccc(Cn3c(N)nc4cc(-c5ccc(P(C)(C)=O)nc5)cnc43)cc2OC)cc1 [Ex. 3-16, (5-(2-Amino-3-(3-methoxy-4-((4-methoxybenzyl)oxy)benzyl)-3H-imidazo[4,5-b]pyridin-6-yl)pyridin-2-yl)dimethylphosphine oxide]
0.001 | 0.0009 | – | COc1ccc(COc2ccc(Cn3cnc4cc(-c5cnn(C6CCNCC6)c5)cnc43)cc2OC)cn1 [Ex. 3-19, 3-(3-Methoxy-4-((6-methoxypyridin-3-yl)methoxy)benzyl)-6-(1-(piperidin-4-yl)-1H-pyrazol-4-yl)-3H-imidazo[4,5-b]pyridine]
0.0009 | 0.0006 | – | COc1cc(Cn2cnc3cc(-c4cnn(C5CCNCC5)c4)cnc32)ccc1OCc1ccc(C)nc1 [Ex. 3-20, 3-(3-Methoxy-4-((6-methylpyridin-3-yl)methoxy)benzyl)-6-(1-(piperidin-4-yl)-1H-pyrazol-4-yl)-3H-imidazo[4,5-b]pyridine]
0.026 | 0.024 | – | COc1ccc(COc2ccc(Cn3cnc4cc(-c5noc(C6CCNCC6)n5)cnc43)cc2OC)cn1 [Ex. 3-21, 3-(3-(3-Methoxy-4-((6-methoxypyridin-3-yl)methoxy)benzyl)-3H-imidazo[4,5-b]pyridin-6-yl)-5-(piperidin-4-yl)-1,2,4-oxadiazole]
0.306 | 0.317 | – | COc1ccc(COc2ccc(Cn3cnc4cc(-c5noc(C6CCNCC6)n5)ccc43)cc2OC)cn1 [Ex. 3-22, 3-(1-(3-Methoxy-4-((6-methoxypyridin-3-yl)methoxy)benzyl)-1H-benzo[d]imidazol-5-yl)-5-(piperidin-4-yl)-1,2,4-oxadiazole]
0.051 | 0.057 | – | COc1ccc(COc2ccc(Cn3cnc4cc(-c5nnc(C6CCNCC6)o5)cnc43)cc2OC)cn1 [Ex. 3-23, 2-(3-(3-Methoxy-4-((6-methoxypyridin-3-yl)methoxy)benzyl)-3H-imidazo[4,5-b]pyridin-6-yl)-5-(piperidin-4-yl)-1,3,4-oxadiazole]
0.088 | 0.043 | – | COc1ccc(COc2ccc(Cn3cnc4cc(-n5cc(C(C)(C)N)nn5)cnc43)cc2OC)cn1 [Ex. 3-24, 2-(1-(3-(3-Methoxy-4-((6-methoxypyridin-3-yl)methoxy)benzyl)-3H-imidazo[4,5-b]pyridin-6-yl)-1H-1,2,3-triazol-4-yl)propan-2-amine]
